{
  "source": "patent US9861702B2",
  "about": "“Lipid-conjugated rhamnose for immune system recruitment and oncotherapy” (WISCONSIN ALUMNI RESEARCH FOUNDATION, priority 2012, dated 2018)",
  "key": {"M21 cells [1]": {"system": "M21 cells", "assay": "Fluorescent lipid insertion levels, quantitative flow cytometry with calibration beads", "type": "cell-based", "source_text": "FIG. 5 is a graph showing the results of flow cytometry measurements to assess the levels of insertion of fluorescent lipid conjugates into M21 cells. See Example 4 and Scheme 6 for details. Under the treatment conditions used, insertion levels of approximately 3×10^6 lipids per cell was achieved. All three fluorescent labeled lipids inserted robustly into the cell membrane.\nTo estimate lipid insertion levels into model cells, three fluorescent lipid derivatives were synthesized: 101 an Alexa-Fluor® 488 dye conjugated to cholesterol, 102 Alexa-Fluor® 488 dye (Life Technologies) conjugated to POPE and 103 an Alexa-Fluor® 488 dye conjugated to DPoPE. M21 cells were treated with these lipids and assessed by quantitative flow cytometry using calibration beads to determine the number of fluorophores per cell. The results are illustrated in FIG. 5."}, "[2]": {"system": "antibodies in human serum", "assay": "Stability of antigen-antibody complexes in serum, SPR loss of response units over 1 hour", "type": "binding", "conditions": "over one hour, corrected RU", "experimental": "FIG. 3 also includes a Table showing percentage loss calculated as (RUT2)/RuT1. All RU were corrected by reference subtraction.\nThe relative stability of antigen-antibody complexes for DNP, αGal and Rha in serum was assessed by evaluating RU (corrected RU) as a function of time (over 1 hour). FIG. 3 illustrates the decay of RU with time for antigen-antibody complexes for the three antigens. Due to the complexity of these systems, exact kinetic parameters could not be determined; however the loss of response units over time provides an estimate rank ordering of dissociation rates and complex longevity."}, "M21 cells [3]": {"system": "M21 cells", "assay": "Chromium-51 release assay (CDC / ADCC)", "type": "cell-based", "experimental": "Experiments were performed using the art-recognized Chromium-51 (^51Cr) release assay to assess if Rha2-lipid conjugate 51 was capable of activating cellular responses ADCC.\nM21 cells were treated with lipid as described in Example 6. Target cells are labeled with ^51Cr and the release of label is a measure of cell cytolysis. In this case, the cells were contacted with Na^51Cr label overnight which is somewhat longer than is typically employed in the assay.\nThis confirms results from Example 6 that Rha2-DPoPE was able to mediate CDC. Peripheral blood mononuclear cells (PBMCs) include immune effector cells some of which express CD16, the most important class of which is natural killer cells."}, "complement component C4d": {"system": "complement component C4d", "assay": "Activation of complement, deposition of complement component C4d on treated M21 cells, flow cytometry", "type": "cell-based", "conditions": "25% normal human serum, 1 hour at 37° C.", "experimental": "FIG. 6 is a graph showing the results of flow cytometry measurements of M21 cells treated with the indicated rhamnose-lipid conjugates, or with an antibody known to activate complement (14.18) exposed to normal human serum and subsequently stained for C4d, a marker of complement activation.\nRhamnose-lipid conjugates 4 (Rha1-DPoPE) and 51 (Rha2-DPoPE) were synthesized as described in Example 1. The ability of these compounds to activate complement was tested by looking for deposition of complement component C4d. M21 cells treated with buffer, rha1-DPoPE, rha2-DPoPE, or a control antibody known to activate complement (14.18) were exposed to 25% normal human serum for 1 hour at 37° C., washed and stained for C4d, and analyzed by flow cytometry. […] The 14.18 antibody employed was the Ch14.18-IL2 fusion protein [Gillies, S D; Lan, Y; Lo, K M; Super, M; Wesolowski, J (1999) “Improving the efficacy of antibody-interleukin 2 fusion proteins by reducing their interaction with Fc receptors.” Cancer Research vol. 59 (9) p. 2159-66.]"}, "M21 cells [4]": {"system": "M21 cells", "type": "cell-based", "conditions": "normal donor serum, FIG. 9", "experimental": "The requisite amount of chloroform solution containing each lipid compound was measured into a glass vial. Chloroform was removed by blowing argon into the vial until all solvent was evaporated leaving a lipid film on the glass. The lipid film was hydrated with sufficient buffer (HBSS with 1% BSA) to yield a 0.1 mM solution for 30 minutes at room temperature. The vials were then sonicated in a water bath sonicator to cause the lipids to sheet off of the glass. It is believed that the lipids form vesicle structures in the buffer.\nM21 cells were plated in a 12-well plate and allowed to grow over night. The next morning, the growth medium was removed and replaced with 0.5 mL of buffer (control) or lipid suspension. Cells were incubated in contact with lipids for 1 hour at 37° C. to allow for lipid insertion. The lipid suspension was then aspirated and cells were striped from the plate with 1 mM EDTA in PBS pH 7.4. The EDTA/cell suspensions were diluted ˜1:1 with HBSS/BSA buffer, spun down and resuspended at 500,000 cells mL^−1. Cell samples where CD55 and CD59 were to remain functional were diluted 1:1 in HBSS/BSA buffer. Cell samples in which complement inhibitory factors were to be blocked were diluted 1:1 with HBSS/BSA containing 20 μg/mL of each blocking antibody (anti-CD55: clone 143-30 from Southern Biotech, anti-CD59: clone MEM-43 from Novus Biologicals) for a final concentration of 10 μg/mL of each antibody.\nCell suspensions (50 μL) were added to an opaque white 96-well plate in sextuplicate. […] (See plate illustration FIG. 7.) The plate was incubated at 37° C. for two hours to allow for complement activation and cell killing. After 2 hours, the plate was removed from the incubator and allowed to come to room temperature. […] Luminescence was read on a Tecan M1000 plate reader.\nLuminescence values were averaged for each set of triplicate wells. Since luminescence correlates to viable cells and the heat killed serum wells provide a measure of non-specific cell death, the fraction of viable cells for each condition is calculated as (avg. luminescencenormal serum)/(avg. luminescenceheat killed serum). […]\nFIG. 9 is a graph presenting results in terms of % viable cells for an experiment conducted with M21 cells as noted above which compared treatment of cells with lipid alone serum alone (negative control) (DPoPE), lipid+addition of CD55 and CD59 blocking antibodies, Rha2-lipid 51, Rha2-lipid 51+CD55 and CD59 blocking antibodies, 14.18-IL2 antibody (positive control), and 14.18-IL@antibody+CD55 and CD59 blocking antibodies. […] Cell Titer-Glo® assay (Promega) was used to measure living cells, Viability=(luminescence in wells treated with normal serum)/(luminescence of wells treated with heat inactivated serum)."}, "M21 cells [5]": {"system": "M21 cells", "assay": "DNP-lipid insertion into cell membranes, anti-DNP staining, flow cytometry", "type": "cell-based", "conditions": "M21 cells treated with DNP-lipid, stained with anti-DNP", "source_text": "FIG. 4 is a graph showing the results of flow cytometry measurement of M21 cells treated with or without DNP-lipid and stained with anti-DNP. DNP-lipid 100 (Avanti Polar Lipids, Alabaster, Ala.) was used for the experiment.\nAs an initial assessment of antigen-lipid insertion into cell membranes, a hapten-lipid conjugate, DNP-lipid (100, a dipalmitoleoyl phosphatidylethanolamine-DNP conjugate) and anti-DNP-antibody were used to determine if (1) lipids would insert into model M21 cell line and (2) if the antigen headgroups of the antigen-lipid conjugates would remain accessible to antibodies. M21 cells treated with the DNP-lipid followed by staining with anti-DNP were analyzed by flow cytometry (FIG. 4)."}, "[6]": {"system": "antibodies in human serum", "assay": "Biosensor (SPR) analysis of antibody levels in human serum against immobilized biotinylated antigens", "type": "binding", "conditions": "10% serum, after 5 minutes of serum exposure, biotinylated antigen on streptavidin chip", "source_text": "Biosensor analysis was used to evaluate levels of antibodies in human serum. Surface plasmon resonance (SPR) is an information-rich technique requiring only small amounts of material, and surfaces with immobilized compounds can be regenerated and used multiple times. Although this technique is most often associated with determination of kinetic parameters, it is also useful for rank ordering interactions with ligands and antibody characterization, and is compatible with serum. […] The biotinylated antigens were immobilized on streptavidin-coated sensor chips along with a biotinylated control peptide in a reference channel. Serum was collected from healthy volunteer donors under IRB-approved Human Subjects minimal risk protocol M-2005-1282 at the University of Wisconsin-Madison. To limit bulk refractive index changes and keep signal within the instrument's detection range, solutions of 10% serum were flowed across the chip, contacting antigens in this order: […] As a measure of antibody prevalence, corrected response units (RUantigen-RUreference) bound to each flow channel were compared after 5 minutes of serum exposure; more RU indicated greater antibody binding and therefore, a higher titer. […] Antibodies to rhamnose were further assessed with ELISA assays using immobilized rhamnose-BSA."}, "[7]": {"conditions": "plus CD55 and CD59 blocking antibodies 10 μg/mL each"}},
  "note": "Entries after “also recorded” stand apart in the source; their conditions may differ. Where two headings read alike, the source gives them in different places.",
  "data": [
    {"compound": "CC(C)CCC[C@@H](C)[C@H]1CC[C@H]2[C@@H]3CC=C4C[C@H](OC(=O)NCCOCCOCCNC(=O)c5cccc(-c6c7ccc(=N)c(S(=O)(=O)O)c-7oc7c(S(=O)(=O)O)c(N)ccc67)c5C(=O)O)CC[C@]4(C)[C@H]3CC[C@]12C", "note": "[Compound 101]", "values": [
      {"measurement": "insertion into cell membranes, copy numbers (fluorophores per cell)", "setting": "M21 cells [1]", "result": "around 3×10^6"}
    ]},
    {"compound": "OC[C@H]1O[C@H](O[C@H]2[C@@H](O)[C@@H](CO)OC(O)[C@@H]2O)[C@H](O)[C@@H](O)[C@H]1O", "note": "(stereo partly drawn) [αGal, Gal-α-1,3-Gal]", "values": [
      {"measurement": "loss of binding signal (response units) of antigen-antibody complex over time", "setting": "[2]", "result": "signal loss was greater"}
    ]},
    {"compound": "O=[N+]([O-])c1ccc(O)c([N+](=O)[O-])c1", "note": "[DNP, 2,4-dinitrophenol]", "values": [
      {"measurement": "loss of binding signal (response units) of antigen-antibody complex over time", "setting": "[2]", "result": "signal loss was greater"}
    ]},
    {"compound": "CCCCCC/C=C\\CCCCCCCC(=O)OC[C@H](COP(=O)(O)OCCN(CCCCO[C@@H]1OC(C)[C@H](O)[C@H](O)C1O)CCCCO[C@@H]1OC(C)[C@H](O)[C@H](O)C1O)OC(=O)CCCCCCC/C=C\\CCCCCC", "note": "(some centres unmarked) [Compound 51, Rha2-DPoPE]", "values": [
      {"measurement": "51Cr release (cytotoxicity, CDC)", "setting": "M21 cells [3]; serum alone, FIG. 10 left bar", "result": "Cr-51 was released"},
      {"measurement": "51Cr release (cytotoxicity)", "setting": "M21 cells [3]; serum with PBMCs added, FIG. 10 right bar", "result": "cytotoxicity increased"},
      {"measurement": "complement activation (C4d staining)", "setting": "complement component C4d", "result": "more efficient"},
      {"measurement": "% viability", "setting": "M21 cells [4]; CD55 and CD59 functional", "result": "large decrease in viability"},
      {"measurement": "% viability", "setting": "M21 cells [4]; [7]", "result": "significantly amplified"}
    ]},
    {"compound": "CCCCCCCCCCCCCCCC(=O)OC[C@H](COP(=O)(O)OCCNC(=O)CCCCCNc1ccc([N+](=O)[O-])cc1[N+](=O)[O-])OC(=O)CCCCCCCCCCCCCCC.N", "note": "[DNP-lipid]", "values": [
      {"measurement": "anti-DNP staining shift (membrane insertion, antigen head group accessibility)", "setting": "M21 cells [5]", "result": "positive shift"}
    ]},
    {"compound": "rhamnose", "values": [
      {"measurement": "loss of binding signal (response units) of antigen-antibody complex over time", "setting": "[2]", "result": "affinity advantage over those of both αGal and DNP"},
      {"measurement": "antibody prevalence (corrected response units bound, RUantigen-RUreference)", "setting": "[6]", "result": "more prevalent than those recognizing αGal in all cases; also recorded: equivalent or better to those recognizing DNP in most cases"}
    ]},
    {"compound": "CCCCCC/C=C\\CCCCCCCC(=O)OC[C@H](COP(=O)(O)OCCN)OC(=O)CCCCCCC/C=C\\CCCCCC", "note": "[DPoPE, 1,2-dipalmitoleoyl-sn-glycero-3-phosphoethanolamine]", "values": [
      {"measurement": "% viability", "setting": "M21 cells [4]; CD55 and CD59 functional", "result": "remain equally viable"},
      {"measurement": "% viability", "setting": "M21 cells [4]; [7]", "result": "slight negative impact on cell survival"}
    ]},
    {"compound": "CCCCCC/C=C\\CCCCCCCC(=O)OC[C@H](COP(=O)(O)OCCNCCCCO[C@@H]1OC(C)[C@H](O)[C@H](O)C1O)OC(=O)CCCCCCC/C=C\\CCCCCC", "note": "(some centres unmarked) [Compound 4, Rha1-DPoPE]", "values": [
      {"measurement": "complement activation (C4d staining)", "setting": "complement component C4d", "result": "activated complement"}
    ]}
  ]
}
